Source: publication PMC11420776 (RSC Advances, 2024)

Columns and labels:
SF-268 (CNS cancer) = assay: NCI 60-cell one-dose antiproliferative screen; assay type: cell-based, human; settings: one dose 10 μM
MCF7 (breast cancer) = assay: NCI 60-cell one-dose antiproliferative screen; assay type: cell-based, human; settings: one dose 10 μM
EKVX (NSC lung cancer) = assay: NCI 60-cell one-dose antiproliferative screen; assay type: cell-based, human; settings: one dose 10 μM
U251 (CNS cancer) = assay: NCI 60-cell one-dose antiproliferative screen; assay type: cell-based, human; settings: one dose 10 μM
SK-MEL-28 (melanoma) = assay: NCI 60-cell one-dose antiproliferative screen; assay type: cell-based, human; settings: one dose 10 μM
[1] = tested on: NCI-H226 (NSC lung cancer); assay: NCI 60-cell one-dose antiproliferative screen; assay type: cell-based, human; settings: one dose 10 μM
OVCAR-3 (ovarian cancer) = assay: NCI 60-cell one-dose antiproliferative screen; assay type: cell-based, human; settings: one dose 10 μM
A498 (renal cancer) = assay: NCI 60-cell one-dose antiproliferative screen; assay type: cell-based, human; settings: one dose 10 μM
OVCAR-4 (ovarian cancer) = assay: NCI 60-cell one-dose antiproliferative screen; assay type: cell-based, human; settings: one dose 10 μM
HOP-92 (NSC lung cancer) = assay: NCI 60-cell one-dose antiproliferative screen; assay type: cell-based, human; settings: one dose 10 μM
PC-3 (prostate cancer) = assay: NCI 60-cell one-dose antiproliferative screen; assay type: cell-based, human; settings: one dose 10 μM
SK-MEL-2 (melanoma) = assay: NCI 60-cell one-dose antiproliferative screen; assay type: cell-based, human; settings: one dose 10 μM
LOX IMIV (melanoma) = assay: NCI 60-cell one-dose antiproliferative screen; assay type: cell-based, human; settings: one dose 10 μM
SF-295 (CNS cancer) = assay: NCI 60-cell one-dose antiproliferative screen; assay type: cell-based, human; settings: one dose 10 μM
SN12C (renal cancer) = assay: NCI 60-cell one-dose antiproliferative screen; assay type: cell-based, human; settings: one dose 10 μM
SNB-75 (CNS cancer) = assay: NCI 60-cell one-dose antiproliferative screen; assay type: cell-based, human; settings: one dose 10 μM
M14 (melanoma) = assay: NCI 60-cell one-dose antiproliferative screen; assay type: cell-based, human; settings: one dose 10 μM
T-47D (breast cancer) = assay: NCI 60-cell one-dose antiproliferative screen; assay type: cell-based, human; settings: one dose 10 μM
HCT-15 (colon cancer) = assay: NCI 60-cell one-dose antiproliferative screen; assay type: cell-based, human; settings: one dose 10 μM
[2] = tested on: NCI/ADR-RES (ovarian cancer); assay: NCI 60-cell one-dose antiproliferative screen; assay type: cell-based, human; settings: one dose 10 μM
786-0 (renal cancer) = assay: NCI 60-cell one-dose antiproliferative screen; assay type: cell-based, human; settings: one dose 10 μM
RXF 393 (renal cancer) = assay: NCI 60-cell one-dose antiproliferative screen; assay type: cell-based, human; settings: one dose 10 μM
OVCAR-5 (ovarian cancer) = assay: NCI 60-cell one-dose antiproliferative screen; assay type: cell-based, human; settings: one dose 10 μM
MALME-3M (melanoma) = assay: NCI 60-cell one-dose antiproliferative screen; assay type: cell-based, human; settings: one dose 10 μM
UACC-257 (melanoma) = assay: NCI 60-cell one-dose antiproliferative screen; assay type: cell-based, human; settings: one dose 10 μM
[3] = tested on: NCI-H322M (NSC lung cancer); assay: NCI 60-cell one-dose antiproliferative screen; assay type: cell-based, human; settings: one dose 10 μM
[4] = tested on: NCI-H23 (NSC lung cancer); assay: NCI 60-cell one-dose antiproliferative screen; assay type: cell-based, human; settings: one dose 10 μM
IGROV1 (ovarian cancer) = assay: NCI 60-cell one-dose antiproliferative screen; assay type: cell-based, human; settings: one dose 10 μM
[5] = tested on: 60 human tumor cell lines; assay: NCI 60-cell one-dose antiproliferative screen, whole panel; assay type: cell-based; settings: for inhibition at 10 µM: Homo sapiens, 60 cell, read-out: Mean inhibition (mean GI%)
UO-31 (renal cancer) = assay: NCI 60-cell one-dose antiproliferative screen; assay type: cell-based, human; settings: one dose 10 μM
ACHN (renal cancer) = assay: NCI 60-cell one-dose antiproliferative screen; assay type: cell-based, human; settings: one dose 10 μM
SW-620 (colon cancer) = assay: NCI 60-cell one-dose antiproliferative screen; assay type: cell-based, human; settings: one dose 10 μM
KM12 (colon cancer) = assay: NCI 60-cell one-dose antiproliferative screen; assay type: cell-based, human; settings: one dose 10 μM
SNB-19 (CNS cancer) = assay: NCI 60-cell one-dose antiproliferative screen; assay type: cell-based, human; settings: one dose 10 μM
OVCAR-8 (ovarian cancer) = assay: NCI 60-cell one-dose antiproliferative screen; assay type: cell-based, human; settings: one dose 10 μM
[6] = tested on: NCI-H522 (NSC lung cancer); assay: NCI 60-cell one-dose antiproliferative screen; assay type: cell-based, human; settings: one dose 10 μM
UACC-62 (melanoma) = assay: NCI 60-cell one-dose antiproliferative screen; assay type: cell-based, human; settings: one dose 10 μM
[7] = tested on: MDA-MB-468 (breast cancer); assay: NCI 60-cell one-dose antiproliferative screen; assay type: cell-based, human; settings: one dose 10 μM
HS 578T (breast cancer) = assay: NCI 60-cell one-dose antiproliferative screen; assay type: cell-based, human; settings: one dose 10 μM
HOP-62 (NSC lung cancer) = assay: NCI 60-cell one-dose antiproliferative screen; assay type: cell-based, human; settings: one dose 10 μM
TK-10 (renal cancer) = assay: NCI 60-cell one-dose antiproliferative screen; assay type: cell-based, human; settings: one dose 10 μM
MDA-MB-435 (melanoma) = assay: NCI 60-cell one-dose antiproliferative screen; assay type: cell-based, human; settings: one dose 10 μM
CCRF-CEM (leukemia) = assay: NCI 60-cell one-dose antiproliferative screen; assay type: cell-based, human; settings: one dose 10 μM
[8] = tested on: MDA-MB-231/ATCC (breast cancer); assay: NCI 60-cell one-dose antiproliferative screen; assay type: cell-based, human; settings: one dose 10 μM
[9] = tested on: A549/ATCC (NSC lung cancer); assay: NCI 60-cell one-dose antiproliferative screen; assay type: cell-based, human; settings: one dose 10 μM
HCT-116 (colon cancer) = assay: NCI 60-cell one-dose antiproliferative screen; assay type: cell-based, human; settings: one dose 10 μM
HT29 (colon cancer) = assay: NCI 60-cell one-dose antiproliferative screen; assay type: cell-based, human; settings: one dose 10 μM
COLO-205 (colon cancer) = assay: NCI 60-cell one-dose antiproliferative screen; assay type: cell-based, human; settings: one dose 10 μM
SK-OV-3 (ovarian cancer) = assay: NCI 60-cell one-dose antiproliferative screen; assay type: cell-based, human; settings: one dose 10 μM
HCC-2998 (colon cancer) = assay: NCI 60-cell one-dose antiproliferative screen; assay type: cell-based, human; settings: one dose 10 μM
DU-145 (prostate cancer) = assay: NCI 60-cell one-dose antiproliferative screen; assay type: cell-based, human; settings: one dose 10 μM
[10] = tested on: NCI-H460 (NSC lung cancer); assay: NCI 60-cell one-dose antiproliferative screen; assay type: cell-based, human; settings: one dose 10 μM
CAKI-1 (renal cancer) = assay: NCI 60-cell one-dose antiproliferative screen; assay type: cell-based, human; settings: one dose 10 μM
SF-539 (CNS cancer) = assay: NCI 60-cell one-dose antiproliferative screen; assay type: cell-based, human; settings: one dose 10 μM
RPMI-8226 (leukemia) = assay: NCI 60-cell one-dose antiproliferative screen; assay type: cell-based, human; settings: one dose 10 μM

CN(C)c1ccc(C=NNc2ccc3nnc(-c4ccccc4)n3n2)cc1 [Compound 4c, N,N-Dimethyl-4-((2-(3-phenyl-[1,2,4]triazolo[4,3-b]pyridazin-6-yl)hydrazono)methyl)aniline]
55.19%: GI% [2]
19.56%: GI% (HCT-15 (colon cancer))
41.36%: GI% (OVCAR-4 (ovarian cancer))
18.94%: GI% (PC-3 (prostate cancer))
15.29%: GI% (RXF 393 (renal cancer))
57.96%: GI% (SF-268 (CNS cancer))
17.7%: inhibition at 10 µM [5]
40.80%: GI% [6]
18.27%: GI% (786-0 (renal cancer))
— (— GI% is below 15%): GI% (SK-MEL-28 (melanoma)) | GI% [1] | GI% (A498 (renal cancer)) | GI% (SK-MEL-2 (melanoma)) | GI% (SF-295 (CNS cancer)) | GI% (SN12C (renal cancer)) | GI% (M14 (melanoma)) | GI% (OVCAR-5 (ovarian cancer)) | GI% (MALME-3M (melanoma)) | GI% (UACC-257 (melanoma)) | GI% [3] | GI% (IGROV1 (ovarian cancer)) | GI% (SW-620 (colon cancer)) | GI% (UACC-62 (melanoma)) | GI% [7] | GI% (HOP-62 (NSC lung cancer)) | GI% (TK-10 (renal cancer)) | GI% (MDA-MB-435 (melanoma)) | GI% (CCRF-CEM (leukemia)) | GI% [8] | GI% [9] | GI% (HCT-116 (colon cancer)) | GI% (HT29 (colon cancer)) | GI% (COLO-205 (colon cancer)) | GI% (SK-OV-3 (ovarian cancer)) | GI% (HCC-2998 (colon cancer)) | GI% (SF-539 (CNS cancer)) | GI% (RPMI-8226 (leukemia))
21.18%: GI% (EKVX (NSC lung cancer))
65.40%: GI% (SNB-75 (CNS cancer))
33.19%: GI% (HS 578T (breast cancer))
34.65%: GI% (OVCAR-3 (ovarian cancer))
21.61%: GI% (ACHN (renal cancer))
38.62%: GI% [4]
18.89%: GI% (UO-31 (renal cancer)) | GI% [10]
32.25%: GI% (CAKI-1 (renal cancer))
28.28%: GI% (KM12 (colon cancer))
34.47%: GI% (MCF7 (breast cancer))
26.64%: GI% (DU-145 (prostate cancer))
30.50%: GI% (SNB-19 (CNS cancer))
24.58%: GI% (U251 (CNS cancer))
57.57%: GI% (OVCAR-8 (ovarian cancer))
29.78%: GI% (HOP-92 (NSC lung cancer))
22.66%: GI% (T-47D (breast cancer))
62.55%: GI% (LOX IMIV (melanoma))

Cc1cc(C)n(-c2ccc3nnc(-c4ccccc4)n3n2)n1 [Compound 5, 6-(3,5-dimethyl-1H-pyrazol-1-yl)-3-phenyl-[1,2,4]triazolo[4,3-b]pyridazine]
demolished cytotoxicity: cytotoxic activity in words ([5]; NCI-60 panel, one dose 10 μM)
— (— GI% is below 15%): GI% (SF-268 (CNS cancer)) | GI% (MCF7 (breast cancer)) | GI% (EKVX (NSC lung cancer)) | GI% (U251 (CNS cancer)) | GI% (SK-MEL-28 (melanoma)) | GI% [1] | GI% (OVCAR-3 (ovarian cancer)) | GI% (A498 (renal cancer)) | GI% (OVCAR-4 (ovarian cancer)) | GI% (HOP-92 (NSC lung cancer)) | GI% (PC-3 (prostate cancer)) | GI% (SK-MEL-2 (melanoma)) | GI% (SF-295 (CNS cancer)) | GI% (SN12C (renal cancer)) | GI% (SNB-75 (CNS cancer)) | GI% (M14 (melanoma)) | GI% (T-47D (breast cancer)) | GI% (HCT-15 (colon cancer)) | GI% (786-0 (renal cancer)) | GI% (RXF 393 (renal cancer)) | GI% (OVCAR-5 (ovarian cancer)) | GI% (MALME-3M (melanoma)) | GI% (UACC-257 (melanoma)) | GI% [3] | GI% [4] | GI% (IGROV1 (ovarian cancer)) | GI% (ACHN (renal cancer)) | GI% (SW-620 (colon cancer)) | GI% (KM12 (colon cancer)) | GI% (SNB-19 (CNS cancer)) | GI% (OVCAR-8 (ovarian cancer)) | GI% (UACC-62 (melanoma)) | GI% [7] | GI% (HS 578T (breast cancer)) | GI% (HOP-62 (NSC lung cancer)) | GI% (TK-10 (renal cancer)) | GI% (MDA-MB-435 (melanoma)) | GI% (CCRF-CEM (leukemia)) | GI% [8] | GI% [9] | GI% (HCT-116 (colon cancer)) | GI% (HT29 (colon cancer)) | GI% (COLO-205 (colon cancer)) | GI% (SK-OV-3 (ovarian cancer)) | GI% (HCC-2998 (colon cancer)) | GI% (DU-145 (prostate cancer)) | GI% [10] | GI% (SF-539 (CNS cancer)) | GI% (RPMI-8226 (leukemia))
23.93%: GI% [2]
22.70%: GI% (LOX IMIV (melanoma))
25.28%: GI% (CAKI-1 (renal cancer))
>100%: GI% (UO-31 (renal cancer))
< 0%: inhibition at 10 µM [5]
25.34%: GI% [6]
